The text below walks through data of patent US7365160B2, “Mutated constitutively active nuclear orphan receptor” (The United States of America as represented by the …, priority 2002, dated 2008).

In assay [1] the target is T1, mCAR (Mus musculus, UniProt O35627).
T1 construct: mCAR and hCAR expression vectors were constructed by cloning an entire mCAR; expressed in transfected cells; host or cells: HepG2
T1 sequence (O35627 1-358): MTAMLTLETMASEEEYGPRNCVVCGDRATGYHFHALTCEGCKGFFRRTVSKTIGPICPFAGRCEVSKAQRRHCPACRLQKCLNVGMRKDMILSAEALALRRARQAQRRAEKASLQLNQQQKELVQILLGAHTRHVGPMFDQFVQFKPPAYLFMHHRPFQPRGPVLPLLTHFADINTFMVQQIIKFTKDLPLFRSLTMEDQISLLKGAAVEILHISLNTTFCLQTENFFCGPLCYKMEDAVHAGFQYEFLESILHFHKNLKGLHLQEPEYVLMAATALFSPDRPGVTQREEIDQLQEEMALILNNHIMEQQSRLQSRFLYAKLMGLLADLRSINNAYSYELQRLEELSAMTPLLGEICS
Briefly: cell-based transfection assay, (NR1)5-tk-luciferase reporter in HepG2 cells, wild-type mCAR. Particulars: for degree of repression: not affected by the mutation of Thr350. The text has this:
mCAR and hCAR expression vectors were constructed by cloning an entire mCAR (GenBank Accession No: AF009327, deposited on Jul. 22, 1997; SEQ ID NO: 15) or hCAR (GenBank Accession No: Z30425, deposited on Mar. 8, 1994; SEQ ID NO: 17) coding sequence into BamHI and XhoI sites of pCR3 plasmid as described previously (Sueyoshi et al., J Biol Chem 274:6043-6, 1999). Polymerase chain reaction (PCR) was used to amplify the desired hCAR or mCAR fragment from the plasmid. The amplified fragments used for the chimeras were nucleotides encoding amino acids: 1 to 86 of mCAR and 77 to 348 of hCAR (mhh), 1 to 116 of mCAR and 107 to 348 of hCAR (mmh), 1 to 76 of hCAR and 87 to 358 of mCAR (hmm), 1 to 106 of hCAR and 117 to 358 of mCAR (hhm). These fragments were PCR amplified using pfu polymerase and enzymatically phosphorylated primers. The amplified fragments were ligated, and a second PCR amplification was performed on the ligated DNA with the primers for 5′ and 3′ end of the chimeric DNA. The resulting second PCR products were cloned into a pCR3 vector (Invitrogen) with newly created BamHI and XhoI sites at the 5′ and the 3′ ends, respectively.
A mouse SRC-1 cDNA corresponding to amino acid residues 633 to 1450 of SRC-1 (GenBank Accession No: U64828), was amplified and cloned into the EcoRI and Hind III site of pcDNA3.1/myc-His(−)B plasmid (Invitrogen), thereby generating the SRC-1-expression plasmid pcDNA3.1-SRC-1. Wild-type mCAR or mCART350M was co-transfected with or without the SRC-1-expression plasmid (0.1 μg) into HepG2 cells.
The KN-62 repression was examined with and without the co-expression of SRC-1 (EXAMPLE 3).
(A reporter such as luciferase makes a cellular process visible.)

Assay [2] deals with chimeric receptors hmm and hhm. Briefly: luciferase reporter assay in HepG2 cells, chimeric receptors with mouse LBD. In kind it is cell-based, mouse/human.
For the next assay, the target named is T2, mCART350M (Mus musculus, UniProt O35627, T350M).
T2 construct: mCAR and hCAR expression vectors were constructed by cloning an entire mCAR; expressed in transfected cells; host or cells: HepG2
T2 sequence (O35627 1-358 T350M): T1 sequence (O35627 1-358) with T350M
The assay can be described thus: luciferase reporter assay in HepG2 cells, mutant mCART350M. In kind it is cell-based. The settings on record: mCART350M, KN-62 0.1-10 μM, with and without SRC-1.

In assay [3] the target is T1, mCAR. The settings on record: Kawamoto et al. 2000; cited from earlier work.
The target in the next assay is T3, hCAR (Homo sapiens, UniProt Q14994).
T3 construct: expressed in transfected cells; host or cells: HepG2
T3 sequence (Q14994 1-348 isoform Q14994-2): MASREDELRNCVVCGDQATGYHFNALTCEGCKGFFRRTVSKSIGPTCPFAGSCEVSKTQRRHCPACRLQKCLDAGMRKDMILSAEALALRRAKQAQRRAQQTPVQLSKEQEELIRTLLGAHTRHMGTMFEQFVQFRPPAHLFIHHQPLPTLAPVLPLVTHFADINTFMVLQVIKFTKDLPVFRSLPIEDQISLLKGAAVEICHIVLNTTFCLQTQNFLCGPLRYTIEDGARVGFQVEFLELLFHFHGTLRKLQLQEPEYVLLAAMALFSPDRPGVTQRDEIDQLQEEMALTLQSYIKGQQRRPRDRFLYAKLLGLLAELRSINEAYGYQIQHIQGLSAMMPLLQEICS
Particulars: Kawamoto et al. 2000; cited from earlier work.

In the next assay the target is T4, mCAR L352A (Mus musculus, UniProt O35627, L352A).
T4 construct: mCAR and hCAR expression vectors were constructed by cloning an entire mCAR; expressed in transfected cells; host or cells: HepG2
T4 sequence (O35627 1-358 L352A): T1 sequence (O35627 1-358) with L352A
Briefly: luciferase reporter gene activation assay (PBREM) in HepG2 cells, mCAR L352A mutant. Particulars: only in the presence of exogenous SRC-1. In kind it is cell-based. The text has this:
To examine the role of Leu352 in mCAR activity, site-directed mutagenesis was used as described in EXAMPLES 2 and 6.

Another assay relates to mCAR T176V / T176L. Briefly: luciferase reporter gene activation assay (PBREM) in HepG2 cells, mCAR Thr176 mutants. Particulars: T176V or T176L; did not require exogenous SRC-1.

The structures appear in SMILES notation. Substitutions are numbered along the chain they refer to.

Procedure for mCART350M: The transfected cells were then treated, and luciferase assays performed as described in EXAMPLE 1.
To determine if this effect could be disrupted by mutating Thr350 to a Met, the mCART350M mutant described in EXAMPLE 2 was used. The KN-62 repression was examined with and without the co-expression of SRC-1 (EXAMPLE 3).

`CN([C@@H](Cc1ccc(OS(=O)(=O)c2cccc3cnccc23)cc1)C(=O)N1CCN(c2ccccc2)CC1)S(=O)(=O)c1cccc2cnccc12` [KN-62]: the degree of repression was 20-30% on mCAR [1] (in the absence of SRC-1) and 80% at mCAR [1] (in the presence of co-expressed SRC-1). For the same molecule, the “repression of receptor activity by KN-62” value is “similarly repressed” at mCAR [1] (wild-type mCAR, KN-62 0.1-10 μM, with and without SRC-1); “similarly repressed” at mCART350M. Moreover, the “repression of chimera activity” value in assay [2] (chimeras hmm and hhm) is recorded as 2-4 fold. Further, on mCAR [3], the “repression of constitutive activity of mCAR” value is “represses”. Also, at hCAR, the “repression of constitutive activity of hCAR” value was “not hCAR”.

For the molecule `Clc1cnc(Oc2ccc(Oc3ncc(Cl)cc3Cl)cc2)c(Cl)c1` [TCPOBOP, 1,4-bis [2-(3,5-dichloropyridyloxy)]benzene], the “re-activation of KN-62-repressed chimeric receptors” value in assay [2] (chimeras hmm and hhm repressed by KN-62) is recorded as “re-activated”. The “activation of L352A mutant” value on mCAR L352A was “activated”. For the same molecule, in the assay with mCAR T176V / T176L, the “activation of mutated mCAR” value is “effectively activated”.
